Source: US20230247997A1 (published 2023)

COc1nc(-c2ccc(Cl)cc2)ns1
melting point: 137 to 139 °C

COc1cccc(-c2nsc(OC)n2)c1
melting point: 73 to 75 °C

COc1nc(-c2ccc([N+](=O)[O-])cc2)ns1
melting point: 138 to 140 °C

COc1nc(-c2ccccc2)nc(-c2ccccc2)n1
melting point: 109 to 111 °C

COc1nc(-c2ccc(F)cc2)nc(-c2ccc(F)cc2)n1
melting point: 173 to 174 °C

COc1nc(-c2ccc(Cl)cc2)nc(-c2ccc(Cl)cc2)n1
melting point: 192 to 194 °C

COc1cccc(-c2nc(OC)nc(-c3cccc(OC)c3)n2)c1
melting point: 126 to 128 °C

CCSc1nc(-c2ccc(F)cc2)ns1
melting point: 35 to 36 °C

CCSc1nc(-c2ccc(Cl)cc2)ns1
melting point: 44 to 45 °C

CSc1nc(-c2ccc(Cl)cc2)ns1
melting point: 105 to 107 °C

CCSc1nc(-c2ccc(Br)cc2)ns1
melting point: 36 to 37 °C

CCSc1nc(-c2ccc(OC)cc2)ns1
melting point: 54 to 56 °C

CCSc1nc(-c2ccc([N+](=O)[O-])cc2)ns1
melting point: 103 to 104 °C

CCSc1nc(-c2ccncc2)ns1
melting point: 49 to 50 °C

CCSc1nc(-c2cnccn2)ns1
melting point: 60 to 62 °C

CCOC(=O)C=C1N=C(SCC)SN1
melting point: 128 to 129 °C

CCSC1=NC(=CC(N)=O)NS1
melting point: 140 to 142 °C

CCSc1nc(OC)ns1
melting point: 35 to 37 °C

CCSc1nc(N(C)C)ns1
melting point: 116 to 118 °C
